ChEMBL document CHEMBL1151551, “An acid-cleavable linker stable at neutral pH that releases doxorubicin at lysosomal pH” (Bioorg Med Chem Lett, 1993)

Tests used:
Mus musculus [1] = species on record: Mus musculus; assay: The compound was evaluated for half life (release of DOX) […] at 37 degree Celsius at the pH 7.; type: ADME
Mus musculus [2] = species on record: Mus musculus; assay: The compound was evaluated for half life (release of DOX) […] at 37 degree Celsius at the pH 5.; type: ADME

Structure (SMILES)	T1/2 (Mus musculus [1]) [days]	T1/2 (Mus musculus [2]) [h]
CCCCNC(=O)C1(C)CC(C)(C(=O)O)CC(C)(C(=O)NC2CC(O[C@H]3C[C@](O)(C(=O)CO)Cc4c(O)c5c(c(O)c43)C(=O)c3c(OC)cccc3C5=O)OC(C)C2O)C1 (some centres not stated)	> 160	90
COC(=O)C1(C)CC(C)(C(=O)O)CC(C)(C(=O)NC2CC(O[C@H]3C[C@](O)(C(=O)CO)Cc4c(O)c5c(c(O)c43)C(=O)c3c(OC)cccc3C5=O)OC(C)C2O)C1 (some centres not stated)	> 100	40
CCCCN(C)C(=O)C1(C)CC(C)(C(=O)O)CC(C)(C(=O)N(C(=O)C(F)(F)F)C2CC(O[C@H]3C[C@](O)(C(=O)CO)Cc4c(O)c5c(c(O)c43)C(=O)c3c(OC)cccc3C5=O)OC(C)C2O)C1 (some centres not stated)	> 174	> 174
COc1cccc2c1C(=O)c1c(O)c3c(c(O)c1C2=O)C[C@@](O)(C(=O)CO)C[C@@H]3OC1CC(NC(=O)C2(C)CC(C)(C(=O)O)CC(C)(C(=O)O)C2)C(O)C(C)O1 (some centres not stated)		30
